Test results published in patent US9499538B2, “Estrogen receptor modulators and uses thereof” (Seragon Pharmaceuticals, Inc., priority 2012, dated 2016).

Assays:
[1] = test system: MCF-7 cells; test: Breast Cancer Cell Viability Assays (MCF-7, CellTiter-Glo); assay type: cell-based; conditions: 5 days' compound exposure; for IC50: Homo sapiens, MCF7, 120 h
Procedure: MCF-7 cells were adjusted to a concentration of 20,000 cells per mL in RPMI containing 10% FBS and 20 mM HEPES. 16 microliters of the cell suspension (320 cells) was added to each well of a 384 well plate, and the cells were incubated overnight to allow the cells to adhere. The following day an eleven point, serial semilog dilution of each compound was added to the cells in 16 μL at a final concentration ranging from 0.3-0.000003 μM. After 5 days' compound exposure, 16 μL of CellTiter-GLo (Promega, Madison Wis.) was added to the cells, and the relative luminescence units (RLUs) of each well were determined. CellTiter-Glo added to 32 μL of medium without cells was used to obtain a background value. The Percent viability of each sample was determined as follows: (RLU sample−RLU background/RLU untreated cells−RLU background)×100=% viability. […]

[2] = molecular target: T1, ER-α in MCF-7 cells (Homo sapiens, UniProt P03372); test: Breast Cancer Cell ER-α In Cell Western Assay (SP1); assay type: cell-based; conditions: 4 or 24 hr post compound addition; for Emax: MCF7, SP1 antibody, read-out: ER-α In Cell Western Assay (SP1) Max Response; for DC50: SP1 antibody, read-out: ER-α In Cell Western Assay (SP1) IC50
T1 construct: endogenous in cells; host or cells: MCF-7
T1 sequence (P03372 1-595): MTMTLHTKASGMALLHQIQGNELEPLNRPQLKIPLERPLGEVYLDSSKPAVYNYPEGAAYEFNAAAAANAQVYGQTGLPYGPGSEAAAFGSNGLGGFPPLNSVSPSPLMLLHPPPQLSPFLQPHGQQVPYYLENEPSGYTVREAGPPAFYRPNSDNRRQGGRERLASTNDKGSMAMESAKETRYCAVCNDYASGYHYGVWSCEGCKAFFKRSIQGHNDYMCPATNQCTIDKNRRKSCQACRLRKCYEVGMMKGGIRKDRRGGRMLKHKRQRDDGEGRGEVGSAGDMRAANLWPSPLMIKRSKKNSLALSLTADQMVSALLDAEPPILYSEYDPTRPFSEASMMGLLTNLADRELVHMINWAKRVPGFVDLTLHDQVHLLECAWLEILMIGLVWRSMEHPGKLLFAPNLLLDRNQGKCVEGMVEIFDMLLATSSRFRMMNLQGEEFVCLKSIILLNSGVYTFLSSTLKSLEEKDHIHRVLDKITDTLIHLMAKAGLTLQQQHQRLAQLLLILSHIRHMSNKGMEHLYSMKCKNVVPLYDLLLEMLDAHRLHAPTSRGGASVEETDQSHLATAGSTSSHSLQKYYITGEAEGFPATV
Procedure: MCF-7 cells were adjusted to a concentration of 200,000 cells per mL in RPMI containing 10% charcoal-stripped FBS and 20 mM HEPES. 16 microliters of the cell suspension (3200 cells) was added to each well of a poly-D-lysine 384 well plate, and the cells were incubated overnight to allow the cells to adhere. The following day an eleven point, serial semilog dilution of each compound was added to the cells in 16 μL at a final concentration ranging from 0.3-0.000003 μM. At 4 or 24 hr post compound addition, the cells were fixed (10% formalin in PBS) for 20 minutes. Cells were permeablized in PBS 0.1% Triton and blocked with LICOR blocking buffer (50 μl/well, 90′). The wells were then incubated overnight at 4° C. with SP1 rabbit monoclonal Ab (Thermo Scientific) diluted 1:1000 in LICOR blocking buffer/0.1% Tween-20. Wells which were treated with blocking buffer with Tween but no antibody were used as a background control. Wells were washed with 0.1% Tween-20/PBS and then incubated in goat anti-rabbit IRDye™ 800CW (LICOR Inc.; 1:10000) and DRAQ5 DNA dye (1:2000 for 2 mM stock) diluted in LICOR blocking buffer containing 0.1% Tween-20 and 0.01% SDS for 60 minutes. Cells were washed (50 μl/well, 5′ each) in 0.1% Tween-20/PBS. Plates were scanned on a LICOR Odyssey infrared imaging system. Integrated intensities in the 800 nm channel and 700 nm channel were measured to determine levels of ER and DNA respectively. Percent ER levels were determined as follows: (Integrated intensity 800 nm sample/integrated intensity 700 nm sample)/(Integrated intensity 800 nm untreated cells/integrated intensity 700 nm untreated cells)×100=% ER levels. […]

For `N#Cc1c(/C(=C(/c2ccccc2)C2CCC2)c2ccc(/C=C/C(=O)O)cc2)ccc2[nH]ncc12` [Example 1, (E)-3-(4-((E)-1-(4-Cyano-1H-indazol-5-yl)-2-cyclobutyl-2-phenylvinyl)phenyl)acrylic acid], the “MCF7 Viability Assay Max Response” value [1] was “++ (++ = a single % value ≧ 40%)”, the IC50 [1] was ≤ 100 nM and the Emax [2] was ≥ 40%. The DC50 [2] was ≤ 100 nM.

In the case of `O=C(O)/C=C/c1ccc(/C(=C(\c2ccccc2)C2CCC2)c2ccc3[nH]ncc3c2Cl)cc1` [Example 2, (E)-3-(4-((E)-1-(4-Chloro-1H-indazol-5-yl)-2-cyclobutyl-2-phenylvinyl)phenyl)acrylic acid], the “MCF7 Viability Assay Max Response” value [1] is reported as “++ (++ = a single % value ≧ 40%)”, the IC50 [1] is reported as ≤ 100 nM and the Emax [2] is reported as ≥ 40%. For the same compound, the DC50 [2] was ≤ 100 nM.

`CC/C(=C(/c1ccc(/C=C/C(=O)O)cc1)c1ccc2[nH]ncc2c1C#N)c1ccccc1` [Example 3, (E)-3-(4-((E)-1-(4-Cyano-1H-indazol-5-yl)-2-phenylbut-1-en-1-yl)phenyl)acrylic acid] was tested, and the “MCF7 Viability Assay Max Response” value [1] was “++ (++ = a single % value ≧ 40%)”, the IC50 [1] was ≤ 100 nM and the Emax [2] was ≥ 40%. The DC50 [2] was ≤ 100 nM.

In the case of `O=C(O)/C=C/c1ccc(/C(=C(\c2ccccc2)C2CCC2)c2ccc3c(c2)CNC3=O)cc1` [Example 4, (E)-3-(4-((E)-2-Cyclobutyl-1-(1-oxoisoindolin-5-yl)-2-phenylvinyl)phenyl)acrylic acid], the “MCF7 Viability Assay Max Response” value [1] is reported as “++ (++ = a single % value ≧ 40%)”, the IC50 [1] is reported as ≤ 100 nM and the Emax [2] is reported as ≥ 40%. The DC50 [2] was ≤ 100 nM.

For `O=C(O)/C=C/c1ccc(/C(=C(\c2ccc(F)cc2Cl)C2CCC2)c2ccc3c(c2)CNC3=O)cc1` [Example 5, (E)-3-(4-((E)-2-(2-Chloro-4-fluorophenyl)-2-cyclobutyl-1-(1-oxoisoindolin-5-yl)vinyl)phenyl)acrylic acid], the “MCF7 Viability Assay Max Response” value [1] was “++ (++ = a single % value ≧ 40%)”, the IC50 [1] was ≤ 100 nM and the Emax [2] was ≥ 40%. The DC50 [2] was ≤ 100 nM.

In the case of `CC/C(=C(/c1ccc(/C=C/C(=O)O)cc1)c1ccc2[nH]ncc2c1C#N)c1ccc(F)cc1Cl` [Example 6, (E)-3-(4-((E)-2-(2-Chloro-4-fluorophenyl)-1-(4-cyano-1H-indazol-5-yl)but-1-en-1-yl)phenyl)acrylic acid], the “MCF7 Viability Assay Max Response” value [1] is reported as “++ (++ = a single % value ≧ 40%)”, the IC50 [1] is reported as ≤ 100 nM and the Emax [2] is reported as ≥ 40%. The DC50 [2] was ≤ 100 nM.

With `CC/C(=C(/c1ccc(/C=C/C(=O)O)cc1)c1ccc2[nH]nc(F)c2c1F)c1ccccc1` [Example 7, (E)-3-(4-((E)-1-(3,4-Difluoro-1H-indazol-5-yl)-2-phenylbut-1-en-1-yl)phenyl)acrylic acid] the “MCF7 Viability Assay Max Response” value [1] was “++ (++ = a single % value ≧ 40%)”, the IC50 [1] was ≤ 100 nM and the Emax [2] was ≥ 40%. The DC50 [2] was ≤ 100 nM.

For `CC/C(=C(/c1ccc(/C=C/C(=O)O)cc1)c1ccc2[nH]ncc2c1OC)c1ccccc1` [Example 8, (E)-3-(4-((E)-1-(4-Methoxy-1H-indazol-5-yl)-2-phenylbut-1-en-1-yl)phenyl)acrylic acid], the “MCF7 Viability Assay Max Response” value [1] was “++ (++ = a single % value ≧ 40%)”, the IC50 [1] was ≤ 100 nM and the Emax [2] was ≥ 40%. For the same compound, the DC50 [2] was ≤ 100 nM.

For `COc1c(/C(=C(/c2ccccc2)C2CCC2)c2ccc(/C=C/C(=O)O)cc2)ccc2[nH]ncc12` [Example 9, (E)-3-(4-((E)-2-Cyclobutyl-1-(4-methoxy-1H-indazol-5-yl)-2-phenylvinyl)phenyl)acrylic acid], the “MCF7 Viability Assay Max Response” value [1] was “++ (++ = a single % value ≧ 40%)”, the IC50 [1] was ≤ 100 nM and the Emax [2] was ≥ 40%. For the same compound, the DC50 [2] was ≤ 100 nM.

In the case of `N#Cc1c(/C(=C(/c2ccccc2F)C2CCC2)c2ccc(/C=C/C(=O)O)cc2)ccc2[nH]ncc12` [Example 10, (E)-3-(4-((E)-1-(4-Cyano-1H-indazol-5-yl)-2-cyclobutyl-2-(2-fluorophenyl)vinyl)phenyl)acrylic acid], the “MCF7 Viability Assay Max Response” value [1] is reported as “++ (++ = a single % value ≧ 40%)”, the IC50 [1] is reported as ≤ 100 nM and the Emax [2] is reported as ≥ 40%. For the same compound, the DC50 [2] was ≤ 100 nM.
